{"source": "paper PMC5369193", "about": "“Development and validation of a high-throughput calcium mobilization assay for the orphan receptor GPR88” (Journal of Biomedical Science, 2017)", "key": {"[1]": {"test_system": "GPR88", "parameters": "method as in PMID 24793972", "conditions": "GloSensor cAMP assay, stable HEK293-GPR88-pGloSensor22F cells; read-out: EC50, inhibition of isoproterenol-stimulated cAMP accumulation; cited from earlier work"}, "[2]": {"target": "T1, human GPR88 (Homo sapiens, UniProt Q9GZN0)", "T1 sequence (Q9GZN0 whole entry)": "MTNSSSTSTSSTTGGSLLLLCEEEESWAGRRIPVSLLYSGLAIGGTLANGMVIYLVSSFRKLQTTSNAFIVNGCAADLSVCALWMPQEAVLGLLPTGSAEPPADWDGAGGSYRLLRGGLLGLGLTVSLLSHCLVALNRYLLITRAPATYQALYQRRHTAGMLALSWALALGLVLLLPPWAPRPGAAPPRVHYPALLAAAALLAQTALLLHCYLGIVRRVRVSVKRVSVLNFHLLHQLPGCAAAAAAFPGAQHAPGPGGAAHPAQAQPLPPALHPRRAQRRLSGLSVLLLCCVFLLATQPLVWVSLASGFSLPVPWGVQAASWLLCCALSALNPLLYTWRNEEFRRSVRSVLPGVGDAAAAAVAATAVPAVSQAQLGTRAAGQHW", "test": "384-well no-wash FLIPR calcium mobilization assay in PPLS-HA-GPR88-Gαqi5-CHO cells", "type": "cell-based", "conditions": "10 μM, 2% DMSO, one representative plate"}, "[3]": {"target": "T1, human GPR88", "test": "96-well calcium mobilization assay in stable PPLS-HA-GPR88-Gαqi5-CHO cells", "type": "cell-based"}, "[4]": {"target": "T1, human GPR88", "type": "cell-based", "conditions": "10 μM final"}, "[5]": {"target": "T1, human GPR88", "test": "Calcium mobilization in CHO-RD-HGA16 (Gαq16) cells transiently transfected with GPR88", "type": "cell-based", "parameters": "host or cells: CHO-RD-HGA16 cells stably expressing Gαq16, transient transfection", "conditions": "10 μM final, compared with Gαq16 mock cells; listed as (1R,2R)-2-PCCA"}, "[6]": {"test_system": "P-glycoprotein", "parameters": "method as in PMID 25754495", "conditions": "cited from earlier work"}, "[7]": {"test_system": "GPR88", "parameters": "method as in PMID 27499251", "conditions": "LANCE Ultra cAMP assay, stable PPLS-HA-GPR88 CHO cells; cited from earlier work"}, "[8]": {"test_system": "GPR88", "parameters": "method as in PMID 25690789, PMID 27956039", "conditions": "cited from earlier work"}, "[9]": {"test_system": "GPR88", "parameters": "method as in PMID 24793972", "conditions": "cited from earlier work"}, "[10]": {"conditions": "read-out: pEC50 (EC50, nM), NA class (converted), stable PPLS-HA-GPR88-Gαqi5-CHO cells, two independent experiments in duplicate"}, "[11]": {"conditions": "stable PPLS-HA-GPR88-Gαqi5-CHO cells"}}, "note": "“Also recorded” adds a separate entry of the source. Read-outs that look alike come from different tables or passages of the source."}
{"smiles": "CCCc1ccc(-c2ccc(N(C[C@@H](N)[C@@H](C)CC)C(=O)[C@@H]3C[C@H]3c3ccccn3)cc2)cc1", "note": "[Compound 1a, (1R,2R)-2-(pyridin-2-yl)cyclopropanecarboxylic acid ((2S,3S)-2-amino-3-methylpentyl)-(4’-propylbiphenyl-4-yl)amide]", "values": [{"measurement": "EC50", "setting": "[1]", "result": "[…]"}, {"measurement": "average signal", "setting": "[2]", "result": 1830, "unit": "RFU"}, {"measurement": "shape of concentration-response curve", "setting": "[3]", "result": "[…]"}, {"measurement": "decrease of maximum response at 2% final DMSO", "setting": "[3]; 10 μM final, 2% final DMSO", "result": 1.4, "unit": "fold"}, {"measurement": "signal window", "setting": "[3]; working clone", "result": "[…]"}, {"measurement": "specific response compared to Gαqi5 mock cells", "setting": "[4]; 48 h after transfection", "result": 2.3, "unit": "fold"}, {"measurement": "GPR88-specific calcium response in Gαqi5 system", "setting": "[4]; compared with Gαqi5 mock cells", "result": "did elicit a specific response"}, {"measurement": "GPR88-specific calcium response in Gαq16 system", "setting": "[5]", "result": "does not elicit a GPR88-specific response; also recorded: did not elicit a GPR88-specific response"}, {"measurement": "P-glycoprotein substrate", "setting": "[6]", "result": "it is a P-glycoprotein substrate"}, {"measurement": "EC50", "setting": "[7]", "result": "[…]"}]}
{"smiles": "CCCc1ccc(-c2ccc(N(C[C@@H](N)[C@@H](C)CC)C(=O)[C@@H]3C[C@H]3c3ccccc3)cc2)cc1", "note": "[Compound 1b]", "values": [{"measurement": "EC50", "setting": "[3]", "result": 1260, "unit": "nM"}, {"measurement": "fold less potent than (1R,2R)-2-PCCA", "setting": "[3]; EC50 comparison", "result": "approximately 2.5 fold"}]}
{"smiles": "CC[C@H](C)[C@H](N)CN(C(=O)[C@@H]1C[C@H]1c1ccccc1)c1ccc(-c2ccc(C3CCCCC3)cc2)cc1", "note": "[Compound 1c]", "values": [{"measurement": "EC50", "setting": "[3]", "result": 794, "unit": "nM"}]}
{"smiles": "CC[C@H](C)[C@H](N)CN(C(=O)[C@@H]1C[C@H]1c1ccccc1)c1ccc(-c2ccc(C(N)=O)cc2)cc1", "note": "[Compound 1d]", "values": [{"measurement": "EC50", "setting": "[3]; [10]", "result": "> 10000", "unit": "nM"}, {"measurement": "agonist activity in words", "setting": "[3]; [11]", "result": "loss of activity"}]}
{"smiles": "CCCC(C)COc1ccc([C@H](CN)NC(=O)[C@@H](C)c2ccccc2)cc1", "note": "(stereo partly drawn) [Compound 2-AMPP, (2S)-N-((1R)-2-amino-1-(4-(2-methylpentyloxy)phenyl)ethyl)-2-phenylpropanamide]", "values": [{"measurement": "activation of GPR88", "setting": "[8]", "result": "shown to activate GPR88"}]}
{"smiles": "CCCc1ccc(-c2ccc(N(C[C@@H](N)[C@@H](C)CC)C(=O)[C@@H]3C[C@H]3c3ccccn3)cc2)cc1", "note": "[Compound 2-PCCA]", "values": [{"measurement": "calcium mobilization in GPR88 cells", "setting": "[9]", "result": "does not induce calcium mobilization in GPR88 cells"}]}
{"smiles": "CCCc1ccc(-c2ccc(N(C[C@@H](N)CC(C)C)C(=O)[C@@H]3C[C@H]3c3ccccc3)cc2)cc1", "note": "[Compound 2a]", "values": [{"measurement": "EC50", "setting": "[3]", "result": 1320, "unit": "nM"}]}
{"smiles": "CCCc1ccc(-c2ccc(N(C[C@H](N)CC(C)C)C(=O)[C@@H]3C[C@H]3c3ccccc3)cc2)cc1", "note": "[Compound 2b]", "values": [{"measurement": "EC50", "setting": "[3]", "result": 2630, "unit": "nM"}, {"measurement": "loss of potency on changing S- to R-configuration of the amino group", "setting": "[3]; compared with 2a", "result": 2, "unit": "fold"}]}
{"smiles": "CCCc1ccc(-c2ccc(N(CCCC(C)C)C(=O)[C@@H]3C[C@H]3c3ccccc3)cc2)cc1", "note": "[Compound 2c]", "values": [{"measurement": "EC50", "setting": "[3]; [10]", "result": "> 10000", "unit": "nM"}, {"measurement": "agonist activity in words", "setting": "[3]; [11]", "result": "completely inactive"}]}
{"smiles": "CCCc1ccc(-c2ccc(N(C[C@@H](N)[C@@H](C)CC)C(=O)[C@H]3C[C@@H]3c3ccccc3)cc2)cc1", "note": "[Compound 3]", "values": [{"measurement": "EC50", "setting": "[3]", "result": "> 10000", "unit": "nM"}, {"measurement": "agonist activity in words", "setting": "[3]; [11]", "result": "inactive"}]}
